One assay relates to HCT-116. Kind of assay: Antiproliferative MTT assay, HCT-116. The conditions noted are these: Homo sapiens, HCT-116, read-out: Antiproliferative activity IC50 ± SEM, HCT-116. Type of assay: cell-based. Background: Formazan colour is commonly taken as a measure of viable cells.
The subject of a further assay is MCF-7. Put plainly: Antiproliferative MTT assay, MCF-7. Conditions: for IC50: Homo sapiens, MCF7, read-out: Antiproliferative activity IC50 ± SEM, MCF-7. Type of assay: cell-based, human.
Another assay relates to MDAMB-231. Kind of assay: Antiproliferative MTT assay, MDAMB-231. It is filed as cell-based, human. Conditions: for times more potent than sorafenib: MDAMB-231 breast cancer cell line.
The subject of a further assay is PC-3. Put plainly: Antiproliferative MTT assay, PC-3. Type of assay: cell-based. The conditions noted are these: Homo sapiens, PC-3, read-out: Antiproliferative activity IC50 ± SEM, PC-3.
In assay [1] the test system is four human cancer cell lines (HCT-116, PC-3, MCF-7, MDAMB-231). Kind of assay: Antiproliferative MTT assay, average over four cancer cell lines. Type of assay: cell-based. Conditions: for GI50: Homo sapiens, average IC50 of the four cancer cell lines.
For the next assay, the target named is EGFR-TK (Homo sapiens, UniProt P00533). Kind of assay: EGFR inhibitory assay. The conditions noted are these: for IC50: EGFR IC50 ± SEM. Type of assay: biochemical.
Chain of EGFR-TK (P00533 669-1210): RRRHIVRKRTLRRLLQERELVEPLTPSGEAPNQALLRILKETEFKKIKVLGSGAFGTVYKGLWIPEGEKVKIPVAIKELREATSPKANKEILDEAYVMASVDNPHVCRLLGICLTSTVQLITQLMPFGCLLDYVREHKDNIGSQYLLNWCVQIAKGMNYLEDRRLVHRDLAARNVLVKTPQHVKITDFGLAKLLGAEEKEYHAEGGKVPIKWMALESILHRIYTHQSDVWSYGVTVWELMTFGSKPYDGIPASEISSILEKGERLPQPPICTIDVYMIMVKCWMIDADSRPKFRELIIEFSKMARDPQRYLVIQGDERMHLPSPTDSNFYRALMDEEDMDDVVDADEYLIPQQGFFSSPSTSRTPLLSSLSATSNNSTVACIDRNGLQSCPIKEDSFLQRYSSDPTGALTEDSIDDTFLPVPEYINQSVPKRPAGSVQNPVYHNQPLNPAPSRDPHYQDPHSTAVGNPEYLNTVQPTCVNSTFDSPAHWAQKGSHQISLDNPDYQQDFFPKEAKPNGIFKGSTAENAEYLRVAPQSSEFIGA
A further assay concerns the target HER2-TK (Homo sapiens, UniProt P04626). Put plainly: HER2 inhibitory assay. Type of assay: biochemical.
The subject of another assay is MDA-MB 231 cancer cells. Kind of assay: Cell cycle analysis. Type of assay: cell-based, human.
A further assay concerns MDA-MB 231 cells. Kind of assay: Apoptosis induction analysis. Type of assay: cell-based, human.
Another assay relates to BRAF^V600E. The conditions noted are these: read-out: BRAF^V600E IC50; cited from earlier work.

SMILES strings stand for the structures. Several values for one entry are separate records, joined by “and”; a condition that tells them apart may be missing. Equal values may be shown once.

Chain of HER2-TK (P04626 676-1255 limits assumed): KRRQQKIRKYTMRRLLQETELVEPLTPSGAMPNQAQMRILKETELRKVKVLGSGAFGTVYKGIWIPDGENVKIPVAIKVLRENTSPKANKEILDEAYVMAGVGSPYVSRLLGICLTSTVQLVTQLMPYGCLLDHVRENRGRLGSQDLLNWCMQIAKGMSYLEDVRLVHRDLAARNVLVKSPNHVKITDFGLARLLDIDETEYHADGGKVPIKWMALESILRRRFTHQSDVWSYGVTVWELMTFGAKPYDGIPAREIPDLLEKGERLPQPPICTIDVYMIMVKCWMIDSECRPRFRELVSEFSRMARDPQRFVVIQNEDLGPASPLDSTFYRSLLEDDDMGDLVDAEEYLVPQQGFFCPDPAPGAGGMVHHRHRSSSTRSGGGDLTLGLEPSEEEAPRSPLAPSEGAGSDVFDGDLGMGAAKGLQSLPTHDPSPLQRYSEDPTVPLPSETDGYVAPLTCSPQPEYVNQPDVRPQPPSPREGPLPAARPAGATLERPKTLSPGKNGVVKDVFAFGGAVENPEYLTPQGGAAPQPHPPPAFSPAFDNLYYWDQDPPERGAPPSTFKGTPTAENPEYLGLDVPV

The term IC50 denotes the concentration that gives 50% inhibition. As usually defined, the GI50 is the concentration giving 50% growth inhibition. Higher therefore signals lower sensitivity of the cells. For the compound `COc1ccc(N2CCN(CC(=O)Nc3ccc(C(=O)C=Cc4ccco4)cc3)CC2)cc1` [4g, N-(4-(3-(Furan-2-yl)acryloyl)phenyl)-2-(4-(4-methoxyphenyl)piperazin-1-yl)acetamide], the IC50 with HCT-116 turned out to be 17.3 ± 1.4 µM; in the assay on MCF-7 it was 9.37 ± 0.7 µM; in the assay on PC-3 it was 14.2 ± 1.2 µM. Moreover, the “fold less potent than 4n, MCF-7” value in the assay with MCF-7 is reported as 2 fold. Also, the “fold less potent than 4n, MDAMB-231” value in the assay with MDAMB-231 is 2 fold. Also, halving of growth in [1] (GI50) required 12 µM. Moreover, in assay [1] (ratio of GI50 values), the “fold less potent than compound 4n (GI50)” value was determined as 1.7.

`O=C(CN1CCN(c2ccc(Cl)cc2)CC1)Nc1ccc(C(=O)C=Cc2ccco2)cc1` [4n, 2-(4-(4-Chlorophenyl)piperazin-1-yl)-N-(4-(3-(furan-2-yl)acryloyl)phenyl)acetamide]: the IC50 in the assay with HCT-116 was 8.67 ± 0.9 µM; in the assay on MCF-7 it was 6.94 ± 0.4 µM; in the assay with PC-3, 9.08 ± 0.8 µM; against EGFR-TK, 0.799 µM and 1.78 µM; against HER2-TK (HER2 IC50 ± SEM, Table 3) it was 0.505 µM. Besides, in the assay with MDAMB-231, the “times more potent than sorafenib” value stood at 1.6 times. For the same compound, the concentration for 50% growth inhibition (GI50) in [1] came out at 7 µM. Also, on EGFR-TK, the “times less effective as EGFR inhibitors than erlotinib” value was “at least 10 times”.

On to `COc1ccc(N2CCN(CC(=O)Nc3ccc(C4=NN(C(C)=O)C(c5cc(OC)c(OC)c(OC)c5)C4)cc3)CC2)cc1` (centres unmarked) [5d, N-(4-(1-Acetyl-5-(3,4,5-trimethoxyphenyl)-4,5-dihydro-1H-pyrazol-3-yl)phenyl)-2-(4-(4-methoxyphenyl)piperazin-1-yl)acetamide], for which the IC50 with HCT-116 stood at 6.47 ± 0.4 µM. Moreover, in the assay on MCF-7, the IC50 was 5.05 ± 0.4 µM. Also, in the assay with MDAMB-231, the “times more potent than sorafenib” value is 2.7 times. Further, the IC50 in the assay on PC-3 was 13 ± 1 µM. In [1], this compound came in with a GI50 of 7 µM. In addition, at EGFR-TK, the half-maximal inhibitory concentration (IC50) was 0.209 µM. Besides, the IC50 against HER2-TK (HER2 IC50, as printed in text) turned out to be 0.061 µM. The same compound showed an IC50 against HER2-TK (HER2 IC50 ± SEM, Table 3) of 0.101 µM. For the same compound, in the assay with MDA-MB 231 cancer cells (MDA-MB 231, 24 h, 25 μM), the “Cell cycle analysis, Comment” value is listed as “Cell cycle arrest @ G1”; the “DNA content % G0–G1” value stood at 78.53%; the “DNA content % G2/M” value stood at 3.36%; the “DNA content % S” value is listed as 18.11%. Also, the “percentage of pre-G1 apoptosis” value with MDA-MB 231 cancer cells (MDA-MB 231, 24 h incubation) was found to be 78.53%. Besides, the “early apoptosis enhanced more than late apoptosis, fold” value with MDA-MB 231 cells (MDA-MB 231) came out at 5 fold. In the assay with MDA-MB 231 cells (MDA-MB cancer cells, 24 h), the “Apoptosis Early” value came out at 17.13, the “Apoptosis Late” value is recorded as 8.89, the “Apoptosis Total” value is 29.59 and the Necrosis amounted to 3.57.

Consider `COc1ccc(N2CCN(CC(=O)Nc3ccc(C4=NN(C(C)=O)C(c5ccco5)C4)cc3)CC2)cc1` (centres unmarked) [5g, N-(4-(1-Acetyl-5-(furan-2-yl)-4,5-dihydro-1H-pyrazol-3-yl)phenyl)-2-(4-(4-methoxy-phenyl)piperazin-1-yl)acetamide], for which the IC50 with HCT-116 was 8.06 ± 0.7 µM; in the assay on MCF-7, 3.78 ± 0.2 µM; with PC-3, 7.48 ± 0.6 µM; at EGFR-TK, 2.38 µM; against HER2-TK (HER2 IC50 ± SEM, Table 3), 1.54 µM. The 50% growth inhibitory concentration (GI50) in assay [1] came to 6 µM. In addition, the “times less effective as EGFR inhibitors than erlotinib” value at EGFR-TK is recorded as “at least 10 times”.

As to `C#Cc1cccc(Nc2ncnc3cc(OCCOC)c(OCCOC)cc23)c1` [Erlotinib], in the assay with BRAF^V600E, the IC50 is […].
